Measurements from US20230390273A1, “4-PHENYL-TETRAHYDROPYRIDINE DERIVATIVES FOR TREATING HEARING DISEASES” (CILCARE DEV, priority 2021, published 2023).
Counter-ions that a name gives are not always drawn.

System: synaptic ribbons in inner hair cells
Test: Ribbon synapse immunostaining and counting in cochlea (Example 8)
Assay type: in vivo, male CBA/CaJ mice
Method: At T+35 days, after DPOAE/ABR measures, all cochlea (four (4) left cochleae and four (4) right cochleae) per group were rapidly sampled and immediately fixed by PFA perfusion (through the round and oval windows with PFA 4% after creating a small hole at the apex) in order to performed ribbon synapse immunostaining and analysis. Cochleae were fixed for 1 hour in a 4% PFA solution and decalcified in undiluted RDO (10 mL/cochlea for a minimum of 2 hours). The membranous and sensory spiral containing the organ of Corti are dissected out as a flat surface preparation under a dissecting microscope and immunolabelled with appropriate antibodies: • Vglut3 (Vglut3-Guinea Pig IgG; #135 204, Synaptic systems and Anti-Guinea Pig IgG (H+L), #A21450; Thermo Fisher Scientific 647 nm Far-Red) to stain inner hair cell bodies (vesicular glutamate transporter). • Homer (Homer-Rabbit IgG; #GTX103278; Genetex and Anti-Rabbit IgG (H+L) #A11008 Thermo Fisher Scientific 568 nm Red) to stain dendritic proteins of auditory nerve fibers connecting to IHC (post-synaptic). • CtBP2 (CtBP2-Mouse-IgG1; #612044; BD Transduction Laboratories and Anti-Mouse IgG1, #A21121, Thermo Fisher Scientific 488 Green) to stain the ribeye protein as pre-synaptic marker in IHC. • Phalloidin (Alexa Fluor™ Plus 405 Phalloidin; #A30104; Thermo Fisher Scientific 405 Blue).
Images were acquired on a confocal microscope and the slides were analyzed to i) evaluate by visual observation the presence of OHC and IHC (based on nuclei staining with CtBP2 and HC cell body staining with phalloidin) and ii) count the number of synaptic ribbons in selected inner hair cells in cochlea regions coding sound of selected frequency (25, 32 and 45 kHz).
The number of pre- (CtBP2) and post-synaptic (Homer) labeled spots was counted using Imaris software in 3 dimensions for each image. Co-localization of pre- and post-synaptic elements was defined as a distance of maximum […] between CtBP2- and Homer-labeled spots, using an in-house Matlab program to calculate the distances between CtBP2 and Homer labels from the x, y, and z coordinates.

**Q.** How did the “Number of colocalized ribbons per IHC” value (25 kHz to 40 kHz, not statistically different to sham) turn out when `FC(F)(F)c1cccc(C2=CCN(CCc3ccc(-c4ccccc4)cc3)CC2)c1` [paliroden (fumarate salt), 1-[2-(4-biphenylyl)ethyl]-4-(3-trifluoromethylphenyl)-1,2,3,6-tetrahydropyridine] was run?
**A.** intermediate between traumatized and control mice

**Q.** What about the “Number of pre-synaptic and post-synaptic elements (CtBP2 and Homer) per IHC” value (32 kHz, vs traumatized untreated, paliroden 50 μg/ear one day post-noise, subset) of the same molecule?
**A.** tended to increase

**Q.** And the “Colocalized ribbons per IHC” value (32 kHz, vs traumatized untreated, paliroden 50 μg/ear, subset)?
**A.** increase
